# In patent publication US20020151534A1, “Antithrombotic compounds” (priority 2001, published 2002):
# Biological target: T1, human factor Xa (Homo sapiens, UniProt P00742)
# T1 construct: released from the colourless chromogenic substrate by human factor Xa; purchased Roche
# Experiment: Inhibition of factor Xa, enzyme-kinetic measurement with chromogenic substrate
# Assay type: biochemical
# Conditions: substrate Chromozym X 200 μMol/l, pNA release at 405 nm, pH 8.0, 37° C.
# Method: Enzyme-kinetic measurement with chromogenic substrate. The quantity of anp-nitroaniline (pNA) released from the colourless chromogenic substrate by human factor Xa is determined photometrically at 405 nm. It is proportional to the activity of the enzyme used. The inhibition of the enzyme activity by the test substance I (in relation to the solvent control) is determined at various concentrations of test substance and from this the IC50 is calculated, as the concentration which inhibits the factor Xa used by 50%.
# Tris(hydroxymethyl)-aminomethane buffer (100 mmol) and sodium chloride (150 mMol), pH 8.0
# Factor Xa (Roche), spec. activity: 10 U/0.5 ml, final concentration: 0.175 U/ml for each reaction mixture
# Substrate Chromozym X (Roche), final concentration: 200 μMol/l for each reaction mixture
# 10 μl of a 23.5-times concentrated starting solution of the test substance or solvent (control), 175 μl of tris(hydroxymethyl)-aminomethane buffer and 25 μl of a 1.65 U/ml Factor Xa working solution are incubated for 10 minutes at 37° C. After the addition of 25 μl of Chromozym X working solution ([…]) the sample is measured in a photometer (SpectraMax 250) at 405 nm for 150 seconds at 37° C.
# 1. Determining the maximum increase (deltaOD/minutes) over 3 measuring points.
# 2. Determining the % inhibition based on the solvent control.
# 3. Plotting a dosage/activity curve (% inhibition vs substance concentration).
# 4. Determining the IC50 by interpolating the X value (substance concentration) of the dosage/activity curve at Y=50% inhibition.
# T1 sequence (P00742 235-488 limits assumed): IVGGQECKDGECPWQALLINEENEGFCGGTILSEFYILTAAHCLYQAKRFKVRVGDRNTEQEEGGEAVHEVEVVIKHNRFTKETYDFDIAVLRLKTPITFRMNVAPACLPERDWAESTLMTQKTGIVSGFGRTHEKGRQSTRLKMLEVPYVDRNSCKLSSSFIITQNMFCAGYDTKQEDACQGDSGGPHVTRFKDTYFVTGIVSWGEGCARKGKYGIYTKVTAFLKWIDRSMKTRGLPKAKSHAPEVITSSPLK
# T1 sequence (P00742 41-179 partner limits assumed): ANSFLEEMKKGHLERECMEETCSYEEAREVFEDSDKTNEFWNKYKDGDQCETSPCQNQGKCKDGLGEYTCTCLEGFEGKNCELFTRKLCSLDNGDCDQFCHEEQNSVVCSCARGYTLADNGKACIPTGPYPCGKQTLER
row,IC50 [µM],Compound
1,0.075,CCOC(=O)CCC(=O)N(c1ccc(C(=O)NCc2cc(C(=N)N)ccc2O)cc1C)C1CCCC1 [(3)]
2,0.031,Cc1cc(C(=O)NC(CC(=O)O)c2cccc(C(=N)N)c2)ccc1C(=O)N1CCCC1 (centres unmarked) [(5)]
3,0.014,Cc1cc(C(=O)NCc2cc(C(=N)N)ccc2O)ccc1C(=O)N1CCCC1 [(2)]
4,0.01,N=C(N)c1ccc(O)c(CNC(=O)c2ccc(C(=O)N3CCCC3)c(Cl)c2)c1 [(4)]
5,0.084,Cc1cc(NCCc2cc(C(=N)N)ccc2O)ccc1C(=O)N1CCCC1 [(1)]
